Assay results as given in ChEMBL document CHEMBL1127438, “Substituted (S)-phenylpiperidines and rigid congeners as preferential dopamine autoreceptor antagonists: synthesis and structure-activity relationships” (J Med Chem, 1994).

Assays:
[1] = molecular target: T1, D(3) dopamine receptor (Homo sapiens, UniProt P35462); assay: Tested for in vitro binding affinity against cloned mammalian dopamine D3 receptor, expressed in CHO-K1 cells, using [3H]spiperone as radioligand; format: cell-based
[2] = test system: Rattus norvegicus; assay: Evaluated biochemically in nonpretreated habituated rats for (100 uM/kg) subcuteneous dose, Value expressed as locomotor activity (LMA); format: functional
[3] = test system: Rattus norvegicus; assay: Evaluated for DOPAC level in nonpretreated habituated rats after subcuteneous dose of 100 micro mol/kg in rat striatum; format: functional
[4] = molecular target: T2, D(2) dopamine receptor (Homo sapiens, UniProt P14416); assay: biochemical
Description: Affinity against recombinant dopamine receptor (DA) D2 expressed in CHO-K1 cells, using [3H]-spiperone as radioligand

[5] = molecular target: Dopamine receptor; assay: Tested for in vitro binding affinity against cloned mammalian dopamine autoreceptor (DA) receptors expressed in CHO-K1 cells using [3H]U-86170 as radioligand; format: cell-based
[6] = molecular target: T1, D(3) dopamine receptor; assay: Tested for in vitro binding affinity against cloned mammalian dopamine autoreceptor (DA) receptors expressed in CHO-K1 cells [3H]-spiperone as radioligand; format: cell-based
[7] = molecular target: T3, D(2) dopamine receptor (Rattus norvegicus, UniProt P61169); assay: Tested for affinity against striatal dopamine autoreceptor (DA) D2 receptors using [3H]spiperone as radioligand in rats.
[8] = test system: Rattus norvegicus; assay: Evaluated biochemically in nonhabituated rats for (100 umol/kg) subcuteneous dose, Value expressed as locomotor activity (LMA); format: functional
[9] = molecular target: T3, D(2) dopamine receptor
Description: Affinity against striatal dopamine D2 receptors using [3H]spiperone as radioligand in rats.

[10] = test system: Rattus norvegicus; assay: Evaluated for DOPA accumulation (DOPAacc) level in nonhabituated rats after subcuteneous dose (100 uM/kg) in rat striatum; format: functional
[11] = molecular target: T2, D(2) dopamine receptor; assay: biochemical; remark: listed apart in the source
Description: In vitro binding affinity against cloned mammalian dopamine D2 autoreceptor, expressed in CHO-K1 cells, using [3H]U-86170 as radioligand

[12] = test system: Rattus norvegicus; assay: Effect of (60 min after administration of 200 (uM/kg) subcuteneous dose on DA release in brain dialysis model of rat striatum; Values expressed as percent of saline controls; format: functional
[13] = test system: Rattus norvegicus; assay: Evaluated for locomotor activity in nonpretreated habituated rats in 100 umol/kg of subcuteneous dose; format: functional; parameters: unit not given here
[14] = test system: Rattus norvegicus; assay: Evaluated for biochemical levels of DOPAC in nonpretreated habituated rats for subcuteneous dose of 100 micro mol/kg in rat striatum; format: functional
[15] = test system: Rattus norvegicus; assay: Evaluated biochemically in reserpine-pretreated habituated rats for (100 umol/kg) subcuteneous dose in rat striatum (DOPAacc), Value expressed as counts/30 min; format: functional
[16] = test system: Rattus norvegicus; assay: Evaluated biochemically in reserpine-pretreated habituated rats for (100 umol/kg) subcuteneous dose, Value expressed as locomotor activity (LMA); format: functional
[17] = test system: Rattus norvegicus; assay: Evaluated for DOPA accumulation in nonhabituated rats at 100 umol/kg of subcuteneous dose in rat striatum; format: functional
[18] = test system: Rattus norvegicus; assay: Effect (60 min after administration of 200 (micro mol/kg) subcuteneous dose on DA release in brain dialysis model of rat; format: functional
[19] = test system: Rattus norvegicus; assay: Compound is evaluated for locomotor activity in reserpine-pretreated habituated rats at 100 umol/kg of subcuteneous dose; format: functional
[20] = test system: Rattus norvegicus; assay: Effect (60 min after administration of 200 (micro mol/kg) subcuteneous dose on DA release in brain dialysis model of rat striatum; format: functional
[21] = test system: Rattus norvegicus; assay: Evaluated for locomotor activity in nonpretreated habituated rats at 100 umol/kg of subcuteneous dose; format: functional; parameters: unit not given here
[22] = test system: Rattus norvegicus; assay: Compound is evaluated for DOPA accumulation in reserpine-pretreated habituated rats at 100 umol/kg of subcuteneous dose in rat striatum; format: functional
[23] = test system: Rattus norvegicus; assay: Compound is evaluated for locomotor activity in nonhabituated rats at 100 umol/kg of subcuteneous dose; format: functional
[24] = test system: Rattus norvegicus; assay: Compound is evaluated biochemically in nonhabituated rats for (100 umol/kg) subcuteneous dose, Value expressed as locomotor activity (LMA); format: functional
[25] = test system: Rattus norvegicus; assay: Tested in vivo for its ability to displace DA receptor agonist (Di-Pr-5,6-ADTN) from rat striatal binding sites at 0.25 uM/Kg sc. dose (after subtraction of cerebellum levels); format: functional
[26] = species: Rattus norvegicus; assay: Tested in vio for concomitant ability to antagonize the locomotor activity of rat induced by Di-Pr-5,6-ADTN, Value expressed as locomotor activity (LMA), % of control; format: functional; parameters: scale not given: the % may be the effect or the level left

T3 sequence (P61169 whole entry): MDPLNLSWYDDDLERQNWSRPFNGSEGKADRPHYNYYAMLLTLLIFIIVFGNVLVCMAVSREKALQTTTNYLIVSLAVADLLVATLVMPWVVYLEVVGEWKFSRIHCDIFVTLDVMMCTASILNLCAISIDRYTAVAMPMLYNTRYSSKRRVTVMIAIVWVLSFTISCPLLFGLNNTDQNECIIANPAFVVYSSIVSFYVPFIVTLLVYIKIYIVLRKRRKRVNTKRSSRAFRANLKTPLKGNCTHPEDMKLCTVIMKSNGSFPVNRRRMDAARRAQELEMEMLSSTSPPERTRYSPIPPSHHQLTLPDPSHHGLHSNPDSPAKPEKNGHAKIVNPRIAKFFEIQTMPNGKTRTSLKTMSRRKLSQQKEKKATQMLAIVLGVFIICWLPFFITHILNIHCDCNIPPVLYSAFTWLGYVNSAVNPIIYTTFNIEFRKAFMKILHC
T1 sequence (P35462 whole entry): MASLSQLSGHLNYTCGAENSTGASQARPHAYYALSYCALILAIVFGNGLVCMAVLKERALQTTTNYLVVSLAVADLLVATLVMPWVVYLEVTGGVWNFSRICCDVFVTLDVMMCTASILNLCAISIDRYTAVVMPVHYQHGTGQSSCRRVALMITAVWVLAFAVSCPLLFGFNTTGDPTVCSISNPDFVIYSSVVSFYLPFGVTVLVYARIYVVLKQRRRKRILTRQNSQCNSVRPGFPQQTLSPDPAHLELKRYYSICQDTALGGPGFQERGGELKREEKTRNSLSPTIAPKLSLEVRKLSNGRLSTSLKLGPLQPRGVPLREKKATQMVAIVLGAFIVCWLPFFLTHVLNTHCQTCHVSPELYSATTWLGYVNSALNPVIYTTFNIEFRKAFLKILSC
T2 sequence (P14416 whole entry): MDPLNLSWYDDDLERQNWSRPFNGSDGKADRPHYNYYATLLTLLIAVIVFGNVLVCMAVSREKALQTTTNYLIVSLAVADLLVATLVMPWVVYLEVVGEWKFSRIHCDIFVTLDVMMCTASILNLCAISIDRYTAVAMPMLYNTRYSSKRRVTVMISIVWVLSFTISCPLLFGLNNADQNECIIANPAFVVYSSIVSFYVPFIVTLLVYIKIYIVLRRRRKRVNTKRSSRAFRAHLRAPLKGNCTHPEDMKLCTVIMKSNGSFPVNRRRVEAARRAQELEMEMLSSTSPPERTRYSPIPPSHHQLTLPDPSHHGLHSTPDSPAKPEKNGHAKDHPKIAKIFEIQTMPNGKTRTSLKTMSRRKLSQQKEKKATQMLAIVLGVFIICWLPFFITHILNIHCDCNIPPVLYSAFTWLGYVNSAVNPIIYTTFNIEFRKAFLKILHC

Ki [1] [µM]	Ki [4] [µM]	Ki [9] [µM]	SMILES	Control [2] [%]	Activity [3] [%]	Ki [11] [µM]	also measured
> 2	> 0.217	–	CCCN1CCC[C@@H](c2cccc(NS(=O)(=O)C(F)(F)F)c2)C1	305	91	–	–
0.059	> 0.217	0.105	N#Cc1cccc([C@@H]2CCCN(CCc3ccccc3)C2)c1	510	–	0.022	Locomotor activity (% of control) [8]: 120%; Activity [10]: 176%
0.17	–	3.39	CCCN1CCC[C@@H](c2cccc(S(=O)(=O)N(C)C)c2)C1	548	355	–	Activity [12]: 220%
> 1.28	> 0.217	2.17	CCCN1CCC[C@@H](c2cccc(C(=O)OC)c2)C1	297	140	> 1.85	–
0.509	> 0.217	1.23	CCCN1CCC[C@@H](c2cccc(CC#N)c2)C1	887	302	0.069	Locomotor activity (% of control) [8]: 147%; Activity [15]: 57%; Control [16]: 16%; Activity [10]: 207%
0.078	> 0.217	0.76	CCCN1CCC[C@@H](c2cccc(-c3ccsc3)c2)C1	229	88	0.134	Activity [12]: 106%
0.036	0.06	0.08	N#Cc1cccc([C@@H]2CCCN(CCCc3ccccc3)C2)c1	484	280	0.029	–
–	> 0.217	–	CCN1CCC[C@@H](c2cccc(OS(=O)(=O)C(F)(F)F)c2)C1	–	–	–	Activity [18]: 120%; Ki [7]: 1.18 µM; Activity [17]: 286%; Activity [14]: 300%
1.46	> 0.217	0.41	CCCN1CCC[C@@H](c2cccc(CO)c2)C1	187	138	0.24	Control [24]: 123%; Activity [15]: 50%; Control [16]: 3%; Activity [12]: 175%; Activity [10]: 118%
> 1.28	> 0.217	> 15	CCCN1CCC[C@@H](c2cccc(C(N)=O)c2)C1	203	114	> 1.85	Activity [15]: 97%
1.3	> 0.217	6.27	CCCN1CCC[C@@H](c2cccc(S(C)(=O)=O)c2)C1	368	250	0.447	Locomotor activity (% of control) [8]: 135%; Activity [15]: 95%; Control [16]: 10%; Control [25]: 45%; Activity [12]: 293%; Activity [10]: 319%; Control [26]: 101%

Further lines, the compound ahead of its results:

SMILES	Ki [1] [µM]	Ki [4] [µM]	Ki [9] [µM]	Control [2] [%]	Activity [3] [%]	Ki [11] [µM]	also measured
CCCN1CCC[C@@H](c2cccc(C)c2)C1	–	> 0.217	–	–	–	–	Ki [5]: 0.43 µM; Ki [6]: 0.573 µM; Ki [7]: 0.93 µM
CCCN1CCCC2c3cccc(OS(=O)(=O)C(F)(F)F)c3CCC21 (stereo in doubt; 45)	–	–	–	–	–	–	Ki [5]: 0.744 µM; Ki [6]: 0.587 µM; LMA [13]: 266; Ki [7]: > 0.453 µM; Activity [14]: 94%
C#CCN1CCC[C@@H](c2cccc(C#N)c2)C1	> 1.36	> 0.217	> 15	297	146	1.18	–
N#Cc1cccc([C@@H]2CCCN(CC3CC3)C2)c1	0.522	> 0.217	–	–	–	0.519	Locomotor activity (% of control) [8]: 191%
C=CCN1CC[C@@H]2c3cccc(OS(=O)(=O)C(F)(F)F)c3CC[C@@H]21 (stereo in doubt; 49)	–	> 0.217	–	–	–	–	Ki [5]: 0.353 µM; Ki [6]: 0.173 µM; LMA [13]: 116; Ki [7]: > 0.172 µM; Activity [14]: 108%
CCCN1CCC[C@@H](c2ccc(OS(=O)(=O)C(F)(F)F)cc2)C1	–	> 0.217	–	–	–	–	Ki [5]: 1.736 µM; Ki [6]: 1.14 µM; Ki [7]: 11.8 µM; Activity [17]: 495%; Activity [14]: 85%
CN1CCC[C@@H](c2cccc(OS(=O)(=O)C(F)(F)F)c2)C1	–	> 0.217	–	–	–	–	Ki [7]: 11.8 µM
N#Cc1cccc([C@@H]2CCCNC2)c1	0.631	> 0.217	–	575	167	0.314	Locomotor activity (% of control) [8]: 193%; Activity [10]: 271%
CCCCN1CCC[C@@H](c2cccc(C#N)c2)C1	–	> 0.217	0.617	1382	257	–	Activity [15]: 71%; Control [16]: 12%
CN1CCC[C@@H](c2cccc(C#N)c2)C1	1.76	> 0.217	8.33	–	174	1.04	Locomotor activity (% of control) [8]: 79%; Activity [10]: 215%
CCCN1CCC[C@@H](c2cccc(O)c2)C1 [PRECLAMOL]	–	–	–	119	203	–	Locomotor activity (% of control) [8]: 40%; Activity [15]: 25%; Control [16]: 12%; Activity [12]: 190; Activity [10]: 141
CCCN[C@@H]1CCc2c(OC)cccc2[C@@H]1C	–	–	–	354	346	–	–
C=CCN1CC[C@H]2c3cccc(OC)c3CC[C@H]21	–	–	–	182	314	–	–
CCCN1CCC[C@@H](c2cccc(Br)c2)C1	–	0.17	–	–	–	–	Ki [5]: 0.106 µM; LMA [19]: 15; Activity [20]: 363%; Ki [6]: 0.171 µM; LMA [21]: 470; Ki [7]: 0.533 µM; Activity [22]: 101%; Activity [17]: 199%; LMA [23]: 140; Activity [14]: 145%
C=CCN1CCC[C@@H](c2cccc(C#N)c2)C1	0.658	> 0.217	1.89	–	–	0.254	Locomotor activity (% of control) [8]: 143%; Activity [15]: 85%; Control [16]: 3%; Control [25]: 59%; Activity [12]: 522%; Activity [10]: 257%; Control [26]: 46%
CCN1CCC[C@@H](c2cccc(C#N)c2)C1	0.514	> 0.217	2.33	351	264	0.235	Locomotor activity (% of control) [8]: 113%; Activity [12]: 212%; Activity [10]: 318%
CCCN1CCC[C@@H](c2ccc(OS(=O)(=O)C(F)(F)F)c(OS(=O)(=O)C(F)(F)F)c2)C1	–	> 0.217	–	–	–	–	Ki [5]: 1.1 µM; Ki [6]: 0.338 µM; LMA [13]: 36; Activity [14]: 96%
CCC(C)N1CCC[C@@H](c2cccc(C#N)c2)C1 (some centres not stated)	0.105	0.098	1.05	346	267	0.187	Control [25]: 59%; Activity [12]: 256%; Control [26]: 56%
C=CCN1CCC2c3cccc(C(N)=O)c3CCC21 (configuration not stated)	> 1.5	> 0.217	> 0.172	–	–	> 1.5	–
CCCN1CCC[C@@H](c2ccccc2OS(=O)(=O)C(F)(F)F)C1	–	> 0.217	–	–	–	–	Ki [5]: 0.315 µM; Ki [6]: 3.11 µM; Activity [17]: 102%; Activity [14]: 83%
CCCN1CCC2c3cccc(OS(=O)(=O)C(F)(F)F)c3CCC21 (configuration not stated)	–	> 0.217	–	–	–	–	Ki [5]: 0.089 µM; Ki [6]: 0.061 µM; LMA [13]: 687; Ki [7]: 0.082 µM; Activity [14]: 223%
C=CCN1CCC2c3cccc(C#N)c3CCC21 (configuration not stated)	> 0.455	–	> 0.172	292	172	0.984	–
CC(C)N1CCC[C@@H](c2cccc(C#N)c2)C1	0.268	> 0.217	0.717	366	–	0.106	Locomotor activity (% of control) [8]: 102%; Activity [10]: 301%
